The text below walks through data of patent US5470854A, “2-phenylbenzo[B]furans, process for their manufacture and pharmaceutical preparations containing them” (Schering Aktiengesellschaft, priority 1991, dated 1995).

The target in test [1] is T1, oestrogen receptor (Bos taurus, UniProt P49884).
T1 construct: oestrogen receptor of a calf's uterus; from tissue; host or cells: calf uterus
T1 sequence (P49884 1-596): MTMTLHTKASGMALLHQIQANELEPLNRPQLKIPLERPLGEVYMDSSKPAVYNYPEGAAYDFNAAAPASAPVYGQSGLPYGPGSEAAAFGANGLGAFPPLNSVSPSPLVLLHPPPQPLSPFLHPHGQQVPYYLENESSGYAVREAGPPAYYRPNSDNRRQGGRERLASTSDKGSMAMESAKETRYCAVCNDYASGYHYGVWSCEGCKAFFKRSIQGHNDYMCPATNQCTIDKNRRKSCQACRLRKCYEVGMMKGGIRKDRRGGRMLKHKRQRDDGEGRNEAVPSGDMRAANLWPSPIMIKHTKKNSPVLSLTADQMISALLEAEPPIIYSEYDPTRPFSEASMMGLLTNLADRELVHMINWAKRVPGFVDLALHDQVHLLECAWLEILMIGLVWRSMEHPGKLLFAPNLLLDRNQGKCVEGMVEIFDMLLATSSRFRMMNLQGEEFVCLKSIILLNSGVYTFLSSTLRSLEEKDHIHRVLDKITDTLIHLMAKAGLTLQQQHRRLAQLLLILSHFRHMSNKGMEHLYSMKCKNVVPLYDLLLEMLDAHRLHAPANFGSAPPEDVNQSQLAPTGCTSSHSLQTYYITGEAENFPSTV
In words: Relative bonding affinity to the oestrogen receptor (competition with 3H-17β-Estradiol). The test is classed as binding, calf. To be noted: for RBA* (relative bonding affinity to the oestrogen receptor): calves' uteri, in relation to 17β-estradiol = 100. An excerpt:
The test methodology is described in Cancer Treatment Reviews 1984, 11, 147.
*Relative bonding affinities to the oestrogen receptor of calves' uteri,
in relation to 17β-estradiol = 100

Test [2] has as its system human MCF-7 mamma carcinoma cells. In words: Effect on cell growth of MCF-7 cells. The test is classed as cell-based. To be noted: for activity at 10 µM / activity at 1 µM / activity at 0.1 µM / activity at 5 µM: Homo sapiens, MCF7, mean of 16 individual results, read-out: T/C (corrected); for activity at 10 µM: 1 × 10^-5 M; for activity at 1 µM: 1 × 10^-6 M; for activity at 0.1 µM: 1 × 10^-7 M; for activity at 5 µM: 5 × 10^-6 M.
Description: Data given as corrected T/C values (%).
^a Inhibiting effect on MCF7 cells: quotient of optical densities fro
standard deviation through error reckoning according to GAUSS.
^b Substance concentration (mol/1) in incubation medium.
^c Significant p < 0.01 in relation to control group (C).

Test [3] concerns uterus of infantile mice. In words: Anti-uterotrophic test (in-vivo test on infantile mice). To be noted: simultaneous 0.4 μg oestron/animal/day; for anti-uterotrophic test, effect: uterus dry weight (mg)/body weight (g) × 100. How it is done: (§1) The effectiveness of these compounds was found in an in-vivo test on infantile mice. This test is extensively described in Cancer Treatment Reviews 1984, 11, 147, and J. Med. Chem., 1984, 27, 1439.
(§2) ^a dosage/animal, administered s.c. on three consecutive days in oliv
(§3) ^b uterus dry weight (mg)/body weight (g) × 100, determined 24
(§4) hours after the final injection.
^c simultaneous administration of 0.4 μg oestron/animal/day.

Test [4] concerns uterus of infantile mice. In words: Uterotrophic test (in-vivo test on infantile mice). To be noted: uterus dry weight (mg)/body weight (g) × 100. The method, then:
as §1, §2, §3, §4

The mark [5] stands for this setting: 1 μg/animal s.c. on three consecutive days.
Where [6] appears, read: 5 μg/animal s.c. on three consecutive days.
The mark [7] stands for this setting: 25 μg/animal s.c. on three consecutive days.
The mark [8] stands for this setting: 125 μg/animal s.c. on three consecutive days.

The structures appear in SMILES notation.

Take `Cc1c(-c2ccc(O)cc2)oc2ccc(O)cc12` [Compound 61a]: the “RBA* (relative bonding affinity to the oestrogen receptor)” value in test [1] was 2,0. In test [2], the “effect on the growth of MCF-7 / hormone-dependent tumour cells, in words” value is reported as “strongly inhibiting effect”; the activity at 10 µM was 13.3 ± 5.3%; the activity at 1 µM was 78.1 ± 17.2%; the activity at 0.1 µM turned out to be 72.3 ± 18.2%. Besides, in test [2], the activity at 5 µM came out at 37.7 ± 11.9%.

Regarding `Cc1c(-c2ccc(O)cc2)oc2cc(O)ccc12` [Compound 61b, 6-hydroxy-2-(4-hydroxyphenyl)-3-methylbenzo[b]furan], in test [1], the “RBA* (relative bonding affinity to the oestrogen receptor)” value is listed as 0,2.

In the case of `CCc1c(-c2ccc(O)cc2)oc2ccc(O)cc12` [Compound 62a, 3-ethyl-5-hydroxy-2-(4-hydroxyphenyl)benzo[b]furan], in test [1], the “affinity to the oestrogen (estradiol) receptor, in words” value (from here on “affinity to the oestrogen … in words”) is listed as “greatest affinity in relation to estradiol” and the “RBA* (relative bonding affinity to the oestrogen receptor)” value is 15,7. Further, in test [2], the “effect on the growth of MCF-7 / hormone-dependent tumour cells, in words” value was “strongly inhibiting effect”; the activity at 10 µM was -0.2 ± 2.9%; the activity at 1 µM is 49 ± 12.6%; the activity at 0.1 µM amounted to 65 ± 13.5%. In test [2], the activity at 5 µM amounted to 0.3 ± 3.8%. For the same compound, in test [3] (5 μg/animal s.c.), the “anti-uterotrophic test, inhibition” value was 10% and the “anti-uterotrophic test, effect” value amounted to 39.1 ± 4.2 mg/g × 100. Further, in test [3] (25 μg/animal s.c.), the “anti-uterotrophic test, inhibition” value is on record as 22% and the “anti-uterotrophic test, effect” value was determined as 35.6 ± 2.6 mg/g × 100. Also, the “anti-uterotrophic test, effect” value in test [3] (1 μg/animal s.c.) is 44.2 ± 7.8 mg/g × 100. Further, in test [4] (setting [5]), the “uterotrophic test, effect” value is recorded as 10.5 ± 1.9 mg/g × 100. For the same compound, in test [4] (setting [6]), the “uterotrophic test, effect” value was determined as 14.6 ± 2.4 mg/g × 100. In test [4] (setting [7]), the “uterotrophic test, effect” value is recorded as 19.0 ± 4.4 mg/g × 100.

As for `CCc1c(-c2ccc(O)cc2)oc2cc(O)ccc12` [Compound 62b, 3-ethyl-6-hydroxy-2-(4-hydroxyphenyl)benzo[b]furan], the “RBA* (relative bonding affinity to the oestrogen receptor)” value in test [1] was 0,6. Moreover, the “anti-uterotrophic test, inhibition” value in test [3] (125 μg/animal s.c.) came to 12%. Further, the entries for the “anti-uterotrophic test, effect” value in test [3] (5 μg/animal s.c.), in test [3] (25 μg/animal s.c.) and in test [3] (125 μg/animal s.c.) were 60.3 ± 5.8 mg/g × 100, 56.9 ± 7.1 mg/g × 100 and 49.8 ± 7.9 mg/g × 100, respectively. The “uterotrophic test, effect” value was found to be 12.9 ± 2.5 mg/g × 100 in test [4] (setting [5]), 14.5 ± 3.7 mg/g × 100 in test [4] (setting [6]), 17.0 ± 3.3 mg/g × 100 in test [4] (setting [7]) and 18.3 ± 6.3 mg/g × 100 in test [4] (setting [8]).

Consider `CCCc1c(-c2ccc(O)cc2)oc2ccc(O)cc12` [Compound 63a, 5-hydroxy-2-(4-hydroxyphenyl)-3-propylbenzo[b]furan], for which, in test [1], the “affinity to the oestrogen … in words” value is recorded as “greatest affinity in relation to estradiol” and the “RBA* (relative bonding affinity to the oestrogen receptor)” value was 20,0. In addition, in test [2], the “effect on the growth of MCF-7 / hormone-dependent tumour cells, in words” value is “strongly inhibiting effect”; the activity at 10 µM is -2.1 ± 2.8%; the activity at 1 µM was 50.5 ± 8.8%; the activity at 0.1 µM stood at 51 ± 11.3%. In addition, in test [2], the activity at 5 µM was -0.1 ± 3.6%.

`CCCc1c(-c2ccc(O)cc2)oc2cc(O)ccc12` [Compound 63b, 6-hydroxy-2-(4-hydroxyphenyl)-3-propylbenzo[b]furan]: the “RBA* (relative bonding affinity to the oestrogen receptor)” value in test [1] is recorded as 1,7.

As to `CCCCc1c(-c2ccc(O)cc2)oc2ccc(O)cc12` [Compound 64a, 3-butyl-5-hydroxy-2-(4-hydroxyphenyl)benzo[b]furan], the “RBA* (relative bonding affinity to the oestrogen receptor)” value in test [1] is 1,6.

On to `CCCCc1c(-c2ccc(O)cc2)oc2cc(O)ccc12` [Compound 64b, 3-butyl-6-hydroxy-2-(4-hydroxyphenyl)benzo[b]furan], for which, in test [1], the “RBA* (relative bonding affinity to the oestrogen receptor)” value is reported as 0,6.

With `Oc1ccc(-c2oc3ccc(O)cc3c2CCCCCCN2CCCCC2)cc1` [Compound 68a, 5-hydroxy-2-(4-hydroxyphenyl)-3-(6-N-piperidylhexyl)benzo[b]furan], the “RBA* (relative bonding affinity to the oestrogen receptor)” value in test [1] is 4,3. In addition, in test [2], the “effect on the growth of MCF-7 / hormone-dependent tumour cells, in words” value is “strongly inhibiting effect”; the activity at 10 µM is -9.9 ± 1.8%; the activity at 1 µM turned out to be 51.6 ± 10.2%; the activity at 0.1 µM was 64.4 ± 12%. For the same compound, the activity at 5 µM in test [2] came out at 10.4 ± 4.8%. In test [3] (5 μg/animal s.c.), the “anti-uterotrophic test, inhibition” value came to 55% and the “anti-uterotrophic test, effect” value came out at 38.1 ± 7.5 mg/g × 100. Besides, in test [3] (25 μg/animal s.c.), the “anti-uterotrophic test, inhibition” value is listed as 56% and the “anti-uterotrophic test, effect” value was found to be 37.6 ± 6.2 mg/g × 100. In addition, in test [3] (125 μg/animal s.c.), the “anti-uterotrophic test, inhibition” value came to 48% and the “anti-uterotrophic test, effect” value was 41.8 ± 6.4 mg/g × 100. The “uterotrophic test, effect” value in test [4] (setting [5]) came out at 16.1 ± 2.1 mg/g × 100. Also, the “uterotrophic test, effect” value in test [4] (setting [6]) came to 17.3 ± 2.9 mg/g × 100. For the same compound, in test [4] (setting [7]), the “uterotrophic test, effect” value came out at 15.8 ± 1.9 mg/g × 100. For the same compound, the “uterotrophic test, effect” value in test [4] (setting [8]) stood at 17.3 ± 3.2 mg/g × 100.

On to `Oc1ccc(-c2oc3cc(O)ccc3c2CCCCCCN2CCCCC2)cc1` [Compound 68b, 6-hydroxy-2-(4-hydroxyphenyl)-3-(6-N-piperidylhexyl)benzo[b]furan], for which the “RBA* (relative bonding affinity to the oestrogen receptor)” value in test [1] was 5,4. Besides, in test [2], the activity at 10 µM is -9.6 ± 2.9%. Besides, in test [2], the activity at 1 µM came out at 42.9 ± 7.7%. Moreover, the activity at 0.1 µM in test [2] amounted to 58.7 ± 17.1%. In test [2], the activity at 5 µM was 12.1 ± 5.4%. The “anti-uterotrophic test, inhibition” value in test [3] (5 μg/animal s.c.) is reported as 10%; in test [3] (25 μg/animal s.c.), 7%. The “anti-uterotrophic test, effect” value is given as 58.6 ± 7.1 mg/g × 100 in test [3] (5 μg/animal s.c.), 59.9 ± 6.6 mg/g × 100 in test [3] (25 μg/animal s.c.) and 68.7 ± 9.9 mg/g × 100 in test [3] (125 μg/animal s.c.). Moreover, the “uterotrophic test, effect” value in test [4] (setting [5]) is listed as 18.3 ± 1.9 mg/g × 100; in test [4] (setting [6]) it was 18.8 ± 3.0 mg/g × 100; in test [4] (setting [7]), 24.4 ± 3.8 mg/g × 100; in test [4] (setting [8]), 21.4 ± 3.7 mg/g × 100.

As to `Cc1c(-c2ccc(O)cc2)sc2ccc(O)cc12` [Compound 102a, 5-hydroxy-2-(4-hydroxypheny)-3-methyibenxo[b]thiophen], in test [1], the “affinity to the oestrogen … in words” value was “greatest affinity in relation to estradiol” and the “RBA* (relative bonding affinity to the oestrogen receptor)” value is 26,0. For the same compound, in test [2], the “effect on the growth of MCF-7 / hormone-dependent tumour cells, in words” value was “strongly inhibiting effect”; the activity at 10 µM came out at 14.7 ± 6.4%; the activity at 1 µM came to 87.4 ± 20%; the activity at 0.1 µM came out at 71.3 ± 18.8%. Also, the activity at 5 µM in test [2] was 48.5 ± 14.7%. Besides, in test [3] (5 μg/animal s.c.), the “anti-uterotrophic test, inhibition” value turned out to be 12% and the “anti-uterotrophic test, effect” value is on record as 42.4 ± 4.0 mg/g × 100. In test [3] (25 μg/animal s.c.), the “anti-uterotrophic test, inhibition” value was 68% and the “anti-uterotrophic test, effect” value worked out at 23.1 ± 3.8 mg/g × 100. Besides, in test [3] (125 μg/animal s.c.), the “anti-uterotrophic test, inhibition” value came out at 42% and the “anti-uterotrophic test, effect” value was found to be 32.2 ± 3.8 mg/g × 100. Further, the “uterotrophic test, effect” value in test [4] (setting [5]) was found to be 15.8 ± 2.1 mg/g × 100. Moreover, the “uterotrophic test, effect” value in test [4] (setting [6]) worked out at 20.8 ± 2.7 mg/g × 100. In addition, in test [4] (setting [7]), the “uterotrophic test, effect” value turned out to be 15.7 ± 2.3 mg/g × 100. The “uterotrophic test, effect” value in test [4] (setting [8]) came to 18.5 ± 3.0 mg/g × 100.

In the case of `CC/C(=C(\c1ccccc1)c1ccc(OCCN(C)C)cc1)c1ccccc1` [Tam, Tamoxifen, reference compound], in test [2], the activity at 10 µM is -5.7 ± 3.4%, the activity at 1 µM stood at 59.1 ± 14.1% and the activity at 0.1 µM is 56.5 ± 16.3%.
